Experimental data reported in article PMC9468151, “Identification of a binding site on soluble RANKL that can be targeted to inhibit soluble RANK-RANKL interactions and treat osteoporosis” (Nature Communications, 2022).
Several values for one entry are separate records, joined by “and”; a condition that tells them apart may be missing. Identical values can stand only once.

Tests used:
[1] = biological target: T1, sRANKL (Rattus norvegicus, UniProt Q9ESE2, D175N); assay: Surface plasmon resonance (SPR) assay; type: binding; details: immobilized sRANKL, 25 °C
T1 construct: (1) sRANKL (rat 159-318 aa); His6-sumo (N, cleaved yes); made in house; host or cells: Escherichia coli BL21 (DE3)
T1 sequence (Q9ESE2 159-318 D175N): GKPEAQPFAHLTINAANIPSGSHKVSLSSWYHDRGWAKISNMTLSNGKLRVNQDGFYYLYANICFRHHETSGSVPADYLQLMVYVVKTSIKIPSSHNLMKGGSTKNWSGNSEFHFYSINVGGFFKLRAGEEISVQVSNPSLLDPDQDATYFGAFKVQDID
Experimental: A ProteOn XPR36TM SPR instrument (BioRad Hercules, CA) was used for carrying out SPR assays. sRANKL protein in PBS buffer, pH 7.4, was diluted to 20 nM in 10 mM sodium acetate buffer, pH 5.5 and immobilized in parallelflow channels of a the EDAC/Sulfo-NHS activated surface of a GLH biosensor chip (Bio-Rad) with an amine coupling kit (Bio-Rad). The surface was blocked with 1 M ethanolamine. The final immobilization level for sRANKL was approximately 14,000 RU. A blank immobilization channel in the same GLH biosensor chip was also activated with EDAC/Sulfo-NHS and blocked with 1 M ethanolamine to use as a reference.
Biosensor binding experiments were conducted in filtered and degassed running buffer (PBS containing 0.005% Tween-20, pH 7.4) at 25 °C. Compounds was dissolved in 100% DMSO in appropriate different series concentrations of stock solutions. Before detecting, compounds were diluted in six or five concentrations with running buffer and ensured that the content of DMSO contained in each detected concentration was consistent. Compounds in different concentrations were injected simultaneously at a flow rate at […] for 180 s and 120 s for the association phase, followed by 180 s for the disassociation. Following the compound injection, the chip surface was regenerated with 40 s pulses of 0.85% H3PO4 and running buffer.
ProtedOn Manager 2.0. was used for data analysis. Each set of sensorgrams was globally analyzed using the 1:1 Langmuir binding model to obtain the kinetic rate constants (Kon and Koff). Global kinetic rate constants (ka and kd) were derived for each reaction, and the equilibrium dissociation constant, KD, was calculated using the equation KD = kd/ka.

[2] = Pharmacokinetic studies in rat; type: in vivo; parameters: plasma concentration-time (fig. S2c): unit not given here
Experimental: 28-week-old and 280 g∼370 g weight male SD (Sprague Dawley) rats were used for pharmacokinetic (PK) studies. Rats were weighed and divided into groups of 3 rats per group. Compounds S3, S3-05 and S3-15 were dissolved in deionized water and made the concentration to 1 mg/mL. Then rats were oral gavage administrated at the doses of 10 mg/kg for each compound. Blood samples were collected in tubes with heparin sodium at 5 min, 10 min, 20 min, 30 min, 40 min, 60 min, 2 h, 3 h, 4 h, 5.5 h, 7 h, 9 h, 12 h, 16 h, 24 h, 32 h, 40 h, 48 h, time points, with three […] per time point for each compound. Blood samples were centrifuged 2100 × g for 10 min at 4 °C, then the plasma was transferred to a clean microfuge tube. Plasma samples were stored at −80 °C. Additionally, ten rats were used as a control and not treated with compound. Plasma from control mice was used to calibrate LC-MS and correct for matrix effects. Drug concentration in plasma was quantified by LC-MS-based methods. Pharmacokinetic parameters were estimated using Phoenix WinNonlin (version 6.3) (Certara USA, Princeton, New Jersey) from mean plasma concentration-time profiles.

[3] = tested on: RANKL-induced resorption pits; assay: Hydroxyapatite resorption assay; type: cell-based, mouse
Experimental: BMMs (1 × 10^5 cells/well) were cultured onto 6-well collagen-coated plates and stimulated with 100 ng/mL sRANKL and 10 ng/mL M-CSF for 3 days to generate early stage of osteoclasts began differentiation. Then early-stage osteoclasts were gently harvested using cell dissociation solution, and seeded into OsteoAssay Surface (hydroxyapatite-coated) 24-well plates. Early-stage osteoclasts were continue incubated in a medium containing sRANKL and M-CSF with or without treatment. After 48 h, wells were bleached to remove cells, followed by image acquisition for the measurement of resorbed areas using a Leica microscope. The percentage of surface resorbed was analyzed using ImageJ software.

[4] = tested on: OVX rats; assay: Osteoporosis biomarkers determination in rat serum (ELISA); type: in vivo; details: OVX rats + S3-15, individual animals
Experimental: Change of rat osteoporosis biomarkers after treating with S3-15 were determined by enzyme-linked immunosorbent assay (ELISA). […] serum biomarkers including CTX-I (C-terminal telopeptide of type I collagen), OC(Osteocalcin), PINP (Procollagen I N-Terminal propeptide), and RANKL(Receptor activator of nuclear factor-κB ligand). Rat blood was collected from aortaventralis after anesthesia, and centrifuged in 14000 × g at 4 °C to get the serum samples. The protein contents of those biomarkers in serum samples were detected according to manufacturer’s instruction (CTX-I and OC, Systems IDS, UK; RANKL, R&D Systems, USA; PINP, USCN Life Science, Inc., China.).

[5] = Sprague-Dawley, rat, male SD rats, oral 10 mg/kg, plasma

## CC(=O)/C(=N\Nc1ccccc1C(=O)O)C(=O)Nc1ccccn1 [S3-15]
[1]
  Kd: 33.7 µM
[2]; [5]
  Cmax: 9520 ± 920 ng/mL
  half-life: 15.5 h
[2]; male SD rats, oral 10 mg/kg, plasma
  AUC: 113.59± 17.41 hr*ug/m
[2]; rat PK, in words
  oral availability: significant oral availability
[2]; rat, time 0.083 h
  plasma concentration-time (fig. S2c): 8.91 and 3.381 and 6.675
[2]; rat, time 0.167 h
  plasma concentration-time (fig. S2c): 27.134 and 17.7488 and 10.2458
[2]; rat, time 0.333 h
  plasma concentration-time (fig. S2c): 13.8156 and 22.2223 and 11.4529
[2]; rat, time 0.5 h
  plasma concentration-time (fig. S2c): 17.5658 and 15.3508 and 13.9547
[2]; rat, time 0.667 h
  plasma concentration-time (fig. S2c): 19.2235 and 12.2338 and 15.5001
[2]; rat, time 1 h
  plasma concentration-time (fig. S2c): 10.8474 and 12.0395 and 10.786
[2]; rat, time 2 h
  plasma concentration-time (fig. S2c): 16.2026 and 12.172 and 14.9878
[2]; rat, time 3 h
  plasma concentration-time (fig. S2c): 10.9318 and 10.4453 and 9.091
[2]; rat, time 4 h
  plasma concentration-time (fig. S2c): 11.3125 and 10.0653 and 13.8947
[2]; rat, time 5.5 h
  plasma concentration-time (fig. S2c): 8.587 and 8.51 and 12.2576
[2]; rat, time 7 h
  plasma concentration-time (fig. S2c): 16.4452 and 12.0395 and 11.7835
[2]; rat, time 9 h
  plasma concentration-time (fig. S2c): 19.4794 and 12.2576 and 12.0395
[2]; rat, time 12 h
  plasma concentration-time (fig. S2c): 5.907 and 4.021 and 6.547
[2]; rat, time 16 h
  plasma concentration-time (fig. S2c): 1.447 and 2.372 and 1.915
[2]; rat, time 24 h
  plasma concentration-time (fig. S2c): 0.5718 (2×) and 0.5604
[2]; rat, time 28 h
  plasma concentration-time (fig. S2c): 0.2204 (2×) and 0.3334
[2]; rat, time 36 h
  plasma concentration-time (fig. S2c): 0.2818 (2×) and 0.3414
[2]; rat, time 48 h
  plasma concentration-time (fig. S2c): 0.1406 and 0.08379 and 0.1171
[3]; S3-15 0.1 μM, vehicle 95, 90, 94
  resorption pits area quantification (fig. 6g): 80 and 85 and 76
[3]; S3-15 1 μM
  resorption pits area quantification (fig. 6g): 57 and 64 and 65
[3]; S3-15 10 μM
  resorption pits area quantification (fig. 6g): 34 and 29 and 27
[3]; in words
  bone resorption / RANKL-induced resorption pits: attenuated bone resorption in a dose-dependent manner
[4]
  CTX-I, serum: 19.469 pg/mL and 18.8316 pg/mL and 14.1264 pg/mL and 18.682 pg/mL and 15.0327 pg/mL and 20.1095 pg/mL and 19.8831 pg/mL and 22.3952 pg/mL and 19.2437 pg/mL
  Glu-OCN, serum: 17.0885 pg/mL and 18.9711 pg/mL and 13.9189 pg/mL and 19.8634 pg/mL and 15.7343 pg/mL and 15.8903 pg/mL and 20.547 pg/mL and 20.6523 pg/mL and 22.4466 pg/mL
  OCN, serum: 88.7207 pg/mL and 63.1562 pg/mL and 56.8431 pg/mL and 170.125 pg/mL and 130.12 pg/mL and 70.5071 pg/mL and 180.184 pg/mL and 178.468 pg/mL and 148.784 pg/mL
  PINP, serum: 11904.5 pg/mL and 9058.6 pg/mL and 6938.35 pg/mL and 7805.25 pg/mL and 15755.4 pg/mL and 15266.7 pg/mL and 4261.9 pg/mL and 14338.4 pg/mL and 6837.57 pg/mL
  RANKL, serum: 197.546 pg/mL and 226.636 pg/mL and 184.818 pg/mL and 228.454 pg/mL and 215.727 pg/mL and 223 pg/mL and 210.273 pg/mL
